Laboratory results reported in PubChem BioAssay (NCI).
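Method: 48-hour compound exposure of cells in 96-well plates, five concentrations, linear interpolation of endpoints. At the GI50, growth is halved. TGI is the concentration that stops growth completely.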

Columns and labels:
Test in all cases: NCI anticancer screen, dose series, 48 h
CAKI-1 renal = system: CAKI-1 renal
HOP-62 NSCLC = system: HOP-62 NSCLC
A549 NSCLC = system: A549 NSCLC
KM12 colon = system: KM12 colon
SK-MEL-5 melanoma = system: SK-MEL-5 melanoma
SK-MEL-2 melanoma = system: SK-MEL-2 melanoma
SNB-75 CNS = system: SNB-75 CNS
SN12C renal = system: SN12C renal
MOLT-4 leukemia = system: MOLT-4 leukemia
BT-549 breast = system: BT-549 breast

| Compound | GI50 (CAKI-1 renal) [µM] | TGI (CAKI-1 renal) [µM] | GI50 (HOP-62 NSCLC) [µM] | TGI (HOP-62 NSCLC) [µM] | GI50 (A549 NSCLC) [µM] | TGI (A549 NSCLC) [µM] | GI50 (KM12 colon) [µM] | TGI (KM12 colon) [µM] | GI50 (SK-MEL-5 melanoma) [µM] | TGI (SK-MEL-5 melanoma) [µM] | GI50 (SK-MEL-2 melanoma) [µM] | TGI (SK-MEL-2 melanoma) [µM] | GI50 (SNB-75 CNS) [µM] | TGI (SNB-75 CNS) [µM] | GI50 (SN12C renal) [µM] | TGI (SN12C renal) [µM] | GI50 (MOLT-4 leukemia) [µM] | TGI (MOLT-4 leukemia) [µM] | GI50 (BT-549 breast) [µM] | TGI (BT-549 breast) [µM] |
| --- | --- | --- | --- | --- | --- | --- | --- | --- | --- | --- | --- | --- | --- | --- | --- | --- | --- | --- | --- | --- |
| O=C1CCC(N2Cc3c(C#CCCCNC(=O)c4cc5c(o4)C(=O)c4ccccc4C5=O)cccc3C2=O)C(=O)N1 (stereo unspecified) | 14.3 | 30.7 | 2.89 | 9.32 | 12.6 | 32.9 | 4.52 | 28.6 | 1.75 | 3.25 | 2.54 | 6.47 | 2.09 | 4.72 | 1.69 | 3.25 | 3.08 | 12.5 | 1.73 | 3.17 |
| Cc1cc(C)c2nc3nc(C)cc(C)c3c(N)c2c1 | 1.83 | 6.12 | 5.26 | 25.7 | 4.34 | > 100 | 5.52 | 24 | 3.73 | 14.2 | 6.89 | 21.7 | 4.86 | 18.3 | 4.37 | 36.2 | 4.7 | 26.6 | 11 | 31.7 |
| Brc1ccccc1C=NC12CC3CC(CC(C3)C1)C2 |  | > 100 |  | > 100 |  | > 100 |  | > 100 |  | > 100 |  | > 100 |  | > 100 |  | > 63.1 |  | > 91.1 |  | > 100 |
| H-HIIKKIRTWYRKAWHVLGKV-NH2 | 3.32 | 18.3 | 4.59 | > 100 | 5.51 | > 100 | 2.49 | 6.58 | 3.94 | 19.5 | 5.31 | 28.2 | 11.9 | 30.4 | 2.96 | 13 | 14.2 | 57.2 | 12.8 | 32.1 |
| O=C(Cc1ccccc1)NC(c1ccc(Cl)cc1)c1c(O)ccc2ccccc12 (stereo unspecified) | 2.52 | 10.2 | 2.84 | 8.57 | 3.68 | 13.3 | 3.62 | 11.7 | 1.73 | 3.2 | 2.9 | 6.83 | 2.22 | 12.4 | 2.99 | 11.5 | 3.51 | 20.3 | 3.8 | 12.8 |
| O=C1CC[C@H](c2ccc(O)c3c2C(=O)[C@@H]2O[C@@H]2C3=O)c2cccc(O)c21 | 1.41 | 9.33 | 3.1 | 11.6 | 16.4 | 40.9 | 3.51 | 12.9 | 3.54 | 12.1 | 13 | 26.9 | 26.7 | > 100 |  |  | 2.71 | 17.4 | 2.38 | 6.42 |
| COc1cc(/C=C2\C(=O)N(c3ccccc3)c3ccccc32)cc(OC)c1OC | 12.5 | 61.3 | 15 | 31.5 | 11.3 | 40.9 | 3.84 | 20.1 | 7.29 | 26.7 | 11.7 | 30.7 | 4.82 | 18.8 | 5.4 | 24.7 | 2.33 | 10.8 | 15.5 | 47.4 |
| CCCC(=O)Nc1ccc2c(c1)CN1C(=O)c3ccccc3C1=N2 |  | > 100 |  | > 100 |  | > 100 |  | > 100 |  | > 100 |  | > 100 |  | > 100 |  | > 100 |  | > 100 |  | > 100 |
| Cc1nn(-c2ccccc2)c2nc3c(nc12)C1=NCCN1C(c1ccc(Cl)cc1)N3 (stereo unspecified) | 13.2 | 27.3 | 3.26 | 8.31 | 4.63 | 17.7 | 3.62 | 12.2 | 1.57 | 3.12 | 2.3 | 4.46 | 1.62 | 6.25 | 11.4 | 25.2 | 2.38 | 6.01 | 12.6 | 27.1 |
| COc1ccc2c(c1)/C(=C\c1c(Cl)n(C)c3ccccc13)C(=O)N2 | 1.1 | 13.6 | 1.44 | 24 | 0.818 | > 100 | 9.06 | 26.4 | 0.76 | 7 | 0.668 | 31.4 | 1.67 | 23.6 | 2.57 | 20.1 | 1.7 | > 22 | 1.29 | 16.4 |
| CSC1=Nc2c(c(C)c(C)n2COC(CO)CO)C2=NC(=O)CC(C)N12 (stereo unspecified) | > 100 | > 100 | > 100 | > 100 | > 100 | > 100 | > 100 | > 100 | > 100 | > 100 | > 100 | > 100 | 30.7 | > 100 | > 100 | > 100 | > 100 | > 100 | > 100 | > 100 |
| Cc1c(-c2nnc(-c3ccc(F)cc3)o2)nnn1-c1ccnc2c(C(F)(F)F)cccc12 | 29.5 | > 100 | 24.4 | 78.4 | 32.3 | > 100 | 89.5 | > 100 | 30.4 | > 100 | > 100 | > 100 | 19.5 | 61.2 | 41.3 | > 100 | > 100 | > 100 | 21.6 | 58.1 |
| O=C(Nc1ccc(OCc2nnc(-c3ccccc3)o2)c(F)c1)Nc1ccc(Cl)c(C(F)(F)F)c1 |  |  | 2.84 | 7.95 | 1.91 | 35.5 | 1.47 | 5.09 | 1.74 | 3.59 | 2.64 | 7.12 | 1.64 | 5.08 | 1.91 | 6.23 | 1.61 | 7.13 | 3.51 | 13.1 |
